Reference: patent US11191743B2, “Modulators of zinc activated cation channel” (Dignity Health, priority 2016, dated 2021)
Entries after “also recorded” stand apart in the source; their conditions may differ. Where two headings read alike, the source gives them in different places.

Tests used:
[1] = biological target: T1, ZACN (Homo sapiens, UniProt Q401N2); experiment: Two-electrode voltage-clamp, ZACN expressed in Xenopus laevis oocytes: agonist-induced current; assay type: cell-based; design: host or cells: Xenopus laevis oocytes injected with cRNA (pGEMHE vector, T7 transcript)
T1 sequence (Q401N2 26-412): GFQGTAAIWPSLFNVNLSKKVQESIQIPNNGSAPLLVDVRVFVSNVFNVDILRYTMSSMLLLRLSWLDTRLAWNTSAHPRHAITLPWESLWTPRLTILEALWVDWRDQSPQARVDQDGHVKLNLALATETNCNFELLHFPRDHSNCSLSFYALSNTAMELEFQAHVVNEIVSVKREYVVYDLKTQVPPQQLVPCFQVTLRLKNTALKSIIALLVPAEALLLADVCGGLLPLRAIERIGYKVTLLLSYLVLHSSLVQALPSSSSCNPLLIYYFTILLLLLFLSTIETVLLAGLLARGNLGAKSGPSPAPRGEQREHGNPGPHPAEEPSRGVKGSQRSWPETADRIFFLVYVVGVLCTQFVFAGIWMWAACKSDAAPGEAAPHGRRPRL
From the text: The cDNA encoding wild type, human ZACN was purchased from OpenBiosystems, and cloned into the pGEMHE vector in the T7 orientation. For cRNA synthesis, cDNA templates were PCR amplified using primers that cover the M13 forward and reverse regions and high fidelity Phusion DNA polymerase (New England Biolab, Ipswich, Mass., USA). PCR products were then purified and served as templates for cRNA synthesis. cRNAs were transcribed by T7 RNA polymerase (Promega, Madison, Wis., USA) using standard in vitro transcription protocols. After digestion of the DNA template by RNase-free DNase I, cRNAs were purified and resuspended in diethyl pyrocarbonate (DEPC)-treated water. cRNA integrity was examined on a 1% agarose gel, and cRNA concentration was determined by optical density measurements at 260 nm using an Eppendorf Biophotometer.
Oocytes were harvested from female Xenopus laevis (Xenopus I, Ann Arbor, Mich., USA), using the protocol “Xenopus Care and Use” approved by the Institutional Animal Care and Use Committee of the St. Joseph's Hospital and Medical Center. Stage VI oocytes were selected and incubated at 16° C. before injection. Micropipettes for injection were pulled from borosilicate glass (Drummond Scientific, Broomall, Pa., USA) on a Sutter P87 horizontal puller, and the tips were cut with forceps to ≈40 μm in diameter. cRNAs encoding ZACN was drawn up into the micropipette and injected into oocytes with a Nanoject micro-injection system (Drummond Scientific) in a total volume of ˜60 nl and total cRNA of ˜20 ng for each oocyte.
Two to 5 days after injection, oocytes expressing ZACN were placed in a home-made, small volume chamber and a 16-channel manifold, continuously perfused with oocyte Ringer's solution (OR2), which consisted of (in mM) 92.5 NaCl, 2.5 KCl, 1 CaCl2, 1 MgCl2 and 5 HEPES, pH 7.5. ValveLink 16 computer-controlled perfusion system was used to switch solutions between the OR2 and a test solution. The perfusion chamber was grounded through an agar salt bridge to avoid alterations in junction potential between the Ag/AgCl grounding electrode and solution when solution/drug changes occurred. Oocytes were voltage-clamped at −70 mV to measure agonist-induced currents using an AxoClamp 900A amplifier (Axon Instruments, Foster City, Calif., USA). The current signal was low-pass filtered at 20 Hz with the built-in 4-pole low-pass Bessel filter and digitized at 100 Hz with a Digidata1440a and pClamp 10 software (Molecular Devices).
For each oocyte, concentration-inhibition curves for drug-induced inhibition of zinc-activated current responses or concentration response curves for agonist-induced current of the ZACN were fit to the Hill equation using least squares methods (Prism 6.0, GraphPad Software, Inc., San Diego, Calif., USA) to derive IC50 or EC50 values (the concentration required for inducing a half maximal current), Hill coefficients (the slope factor), and maximum current levels in absolute terms. Current levels in each oocyte were normalized to the maximum current in the absence of the inhibitor, allowing normalized data to be averaged across multiple oocytes and to be fit again to the Hill equation. All data are presented as mean±SEM (standard error).

[2] = test system: iTreg-induced immunosuppression of T cell division; assay type: cell-based, human; details: high concentration, 1 mM
Experimental: Live Treg cells (CD4+CD25^high) and conventional T cells (Tconv cells) (CD4+CD25−) are obtained by immunomagnetic cell isolation kit from human iTreg. Tconv cells are labeled with CFSE (10 uM for 10 min). After washing, the labeled cells are distributed into multiple wells (1×10^5/well) in a round bottom 96-well plate with various numbers (2-fold serial dilutions from 1×10^5/well) of Treg cells in each well. The mixed cells (Treg and Tconv with different ratios) are co-cultured for 72 h in the presence of anti-CD3/CD28-coated sulfate latex beads. The intensity of CFSE fluorescence that declines upon division of the labeled cells is measured by flow cytometry.
As disclosed throughout the disclosure, and specifically in FIG. 7, Zinc and/or d-tubocurarine has an influence on iTreg suppression function. CFSE Immunosuppression Assay uses a cell permeable reactive fluorescent dye, CFSE. After entering cells, CFSE interacts with intracellular proteins, and permanently stain the cell. The fluorescence intensity will decrease along with the T cell division.

[3] = test system: iTreg cells; experiment: Calcium influx assay in Treg cells; assay type: cell-based, human
Experimental: Treg cells were loaded with calcium sensitive fluorescent dye X-Rhod-1 AM (cell permeant) (2 μM) for 60 min at room temperature. After wash, the cells were placed onto a glass-bottom petri dish with coated glass surface to allow cells attached to the glass surface. The fluorescence was detected using a microscope-based detection system with a different filter set (excitation filter ET560/40x, T585LPxr dichroic mirror, and ET630/75m emission filter). The fluorescence signal, first in the absence and then in the presence of a ZACN agonist, was low-pass filtered with a signal filter at 1 Hz and digitized with a Digidata1440 digitizer at 10 Hz.

[4] = biological target: T1, ZACN; design: host or cells: HEK cells (exogenous expression); details: cited from earlier work
[5] = biological target: T2, glycine (α1) receptor (Homo sapiens, UniProt P23415); experiment: Application of NBT to other Cys-loop receptors; assay type: cell-based; details: listed as NBT
T2 construct: expressed in transfected cells
T2 sequence (P23415 29-457): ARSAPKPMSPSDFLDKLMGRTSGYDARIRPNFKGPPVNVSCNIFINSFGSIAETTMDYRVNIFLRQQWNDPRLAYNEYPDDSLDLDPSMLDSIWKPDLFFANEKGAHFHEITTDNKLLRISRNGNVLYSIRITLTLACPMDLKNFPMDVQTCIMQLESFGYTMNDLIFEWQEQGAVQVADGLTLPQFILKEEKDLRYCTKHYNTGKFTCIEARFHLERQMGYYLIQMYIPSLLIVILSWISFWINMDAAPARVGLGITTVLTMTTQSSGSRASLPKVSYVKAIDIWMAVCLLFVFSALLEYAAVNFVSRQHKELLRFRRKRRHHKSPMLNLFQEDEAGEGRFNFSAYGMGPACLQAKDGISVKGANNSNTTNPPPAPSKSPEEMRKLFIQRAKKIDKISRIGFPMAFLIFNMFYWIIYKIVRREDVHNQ
From the text: (§1) To date the only known agonist and antagonist for ZACN are Zn^2+ (agonist) and d-tubocurarine (antagonist).

[6] = biological target: T3, nACh (α4β2) receptor (Homo sapiens, UniProt P17787+P43681); experiment: Application of NBT to other Cys-loop receptors; assay type: cell-based; details: listed as NBT
T3 construct: expressed in transfected cells
T3 sequence (P43681 29-627): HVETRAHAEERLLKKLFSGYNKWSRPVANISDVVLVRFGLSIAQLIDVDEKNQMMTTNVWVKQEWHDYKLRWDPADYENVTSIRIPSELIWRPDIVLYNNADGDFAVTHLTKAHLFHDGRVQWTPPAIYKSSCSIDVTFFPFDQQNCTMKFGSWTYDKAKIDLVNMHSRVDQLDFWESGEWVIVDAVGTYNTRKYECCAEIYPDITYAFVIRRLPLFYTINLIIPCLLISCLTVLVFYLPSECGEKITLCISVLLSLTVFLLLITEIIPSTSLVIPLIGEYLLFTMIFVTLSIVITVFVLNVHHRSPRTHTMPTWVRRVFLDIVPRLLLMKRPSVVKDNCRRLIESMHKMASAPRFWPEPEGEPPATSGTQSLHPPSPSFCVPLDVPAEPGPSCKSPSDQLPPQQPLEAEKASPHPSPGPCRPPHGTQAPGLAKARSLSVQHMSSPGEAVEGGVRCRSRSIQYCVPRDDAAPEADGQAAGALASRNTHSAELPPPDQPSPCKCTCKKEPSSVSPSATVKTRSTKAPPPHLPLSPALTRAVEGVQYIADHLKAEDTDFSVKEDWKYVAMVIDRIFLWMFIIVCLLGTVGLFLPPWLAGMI
T3 sequence (P17787 26-502): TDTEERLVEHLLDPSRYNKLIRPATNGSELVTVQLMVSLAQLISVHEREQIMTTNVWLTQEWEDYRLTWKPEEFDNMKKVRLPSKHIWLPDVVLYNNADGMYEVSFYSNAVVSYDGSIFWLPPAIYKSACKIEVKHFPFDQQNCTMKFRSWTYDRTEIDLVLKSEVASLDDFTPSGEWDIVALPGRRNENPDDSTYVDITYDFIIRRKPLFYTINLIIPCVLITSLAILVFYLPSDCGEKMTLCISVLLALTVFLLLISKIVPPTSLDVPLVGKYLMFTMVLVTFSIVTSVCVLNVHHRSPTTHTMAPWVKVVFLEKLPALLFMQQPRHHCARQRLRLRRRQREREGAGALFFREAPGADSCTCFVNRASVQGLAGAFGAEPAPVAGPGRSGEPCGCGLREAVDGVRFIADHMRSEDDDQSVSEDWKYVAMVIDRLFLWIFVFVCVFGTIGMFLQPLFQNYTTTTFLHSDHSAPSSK
From the text: as §1

[7] = biological target: T4, GABAA (α1β2γ2) receptor (Homo sapiens, UniProt P14867+P18507+P47870); experiment: Application of NBT to other Cys-loop receptors; assay type: cell-based; details: listed as NBT
T4 construct: expressed in transfected cells
T4 sequence (P47870 25-512): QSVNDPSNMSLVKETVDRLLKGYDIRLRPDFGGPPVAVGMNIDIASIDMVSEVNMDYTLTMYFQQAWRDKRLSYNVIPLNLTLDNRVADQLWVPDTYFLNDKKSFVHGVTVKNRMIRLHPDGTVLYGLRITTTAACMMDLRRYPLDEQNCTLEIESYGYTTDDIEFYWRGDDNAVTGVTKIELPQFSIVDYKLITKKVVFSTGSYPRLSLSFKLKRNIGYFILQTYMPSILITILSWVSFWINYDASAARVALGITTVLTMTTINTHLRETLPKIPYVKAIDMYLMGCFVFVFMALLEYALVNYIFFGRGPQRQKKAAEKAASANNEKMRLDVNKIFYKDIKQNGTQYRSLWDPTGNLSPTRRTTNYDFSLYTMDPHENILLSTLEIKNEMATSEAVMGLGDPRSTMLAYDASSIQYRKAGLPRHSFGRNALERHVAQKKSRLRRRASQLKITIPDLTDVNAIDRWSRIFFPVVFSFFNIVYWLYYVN
T4 sequence (P18507 40-475): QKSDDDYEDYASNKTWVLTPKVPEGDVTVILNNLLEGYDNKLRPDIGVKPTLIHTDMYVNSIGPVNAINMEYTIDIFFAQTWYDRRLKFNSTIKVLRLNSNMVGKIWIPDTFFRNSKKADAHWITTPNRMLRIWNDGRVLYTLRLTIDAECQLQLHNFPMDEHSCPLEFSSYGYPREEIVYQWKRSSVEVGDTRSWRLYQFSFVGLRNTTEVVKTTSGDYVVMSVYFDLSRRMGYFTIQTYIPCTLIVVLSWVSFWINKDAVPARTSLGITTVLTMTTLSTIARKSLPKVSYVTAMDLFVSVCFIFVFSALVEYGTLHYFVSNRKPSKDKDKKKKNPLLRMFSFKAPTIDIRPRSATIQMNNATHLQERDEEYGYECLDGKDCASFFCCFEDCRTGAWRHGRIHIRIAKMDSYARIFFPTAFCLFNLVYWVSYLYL
T4 sequence (P14867 28-456): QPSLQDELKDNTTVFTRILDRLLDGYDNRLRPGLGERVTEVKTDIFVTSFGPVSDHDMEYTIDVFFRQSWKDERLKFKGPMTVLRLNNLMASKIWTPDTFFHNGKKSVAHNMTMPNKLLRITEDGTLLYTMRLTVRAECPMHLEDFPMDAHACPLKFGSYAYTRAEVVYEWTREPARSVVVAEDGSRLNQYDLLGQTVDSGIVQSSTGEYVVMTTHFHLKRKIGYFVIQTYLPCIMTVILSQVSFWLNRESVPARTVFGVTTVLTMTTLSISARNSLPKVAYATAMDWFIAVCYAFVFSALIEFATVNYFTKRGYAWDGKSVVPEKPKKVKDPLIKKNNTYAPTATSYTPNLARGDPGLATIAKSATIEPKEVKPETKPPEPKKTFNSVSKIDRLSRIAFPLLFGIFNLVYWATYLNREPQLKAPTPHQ
From the text: as §1

[8] = biological target: T5, GABAC (ρ1) receptor (Homo sapiens, UniProt P24046); experiment: Application of NBT to other Cys-loop receptors; assay type: cell-based; details: listed as NBT
T5 construct: expressed in transfected cells
T5 sequence (P24046 22-479): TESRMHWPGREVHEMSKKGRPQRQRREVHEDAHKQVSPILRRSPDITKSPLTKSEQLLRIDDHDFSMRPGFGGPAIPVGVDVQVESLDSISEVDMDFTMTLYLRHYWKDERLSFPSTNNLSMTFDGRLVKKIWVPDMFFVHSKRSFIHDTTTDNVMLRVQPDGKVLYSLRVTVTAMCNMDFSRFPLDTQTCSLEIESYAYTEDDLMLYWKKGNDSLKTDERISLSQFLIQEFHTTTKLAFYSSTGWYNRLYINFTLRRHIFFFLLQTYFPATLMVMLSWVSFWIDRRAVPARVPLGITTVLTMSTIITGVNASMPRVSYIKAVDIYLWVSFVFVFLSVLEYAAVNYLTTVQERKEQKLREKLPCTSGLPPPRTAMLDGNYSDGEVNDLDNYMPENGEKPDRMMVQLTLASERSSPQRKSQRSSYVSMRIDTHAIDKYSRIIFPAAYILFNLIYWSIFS
From the text: as §1

[9] = biological target: T6, GABAA (α6β2δ) receptor (Homo sapiens, UniProt O14764+P47870+Q16445); experiment: Application of NBT to other Cys-loop receptors; assay type: cell-based; details: listed as NBT
T6 construct: expressed in transfected cells
T6 sequence (Q16445 20-453): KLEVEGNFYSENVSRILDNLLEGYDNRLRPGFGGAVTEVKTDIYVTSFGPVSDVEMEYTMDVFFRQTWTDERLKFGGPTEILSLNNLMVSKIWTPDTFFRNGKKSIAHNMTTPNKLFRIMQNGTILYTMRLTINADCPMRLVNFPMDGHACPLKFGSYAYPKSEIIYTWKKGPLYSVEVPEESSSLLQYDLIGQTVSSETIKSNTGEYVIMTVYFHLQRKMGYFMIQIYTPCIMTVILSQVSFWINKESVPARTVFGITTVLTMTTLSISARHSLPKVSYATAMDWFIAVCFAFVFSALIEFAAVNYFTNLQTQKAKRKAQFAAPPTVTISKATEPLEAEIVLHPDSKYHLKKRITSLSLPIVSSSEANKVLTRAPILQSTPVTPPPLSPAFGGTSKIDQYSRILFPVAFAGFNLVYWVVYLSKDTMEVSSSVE
T6 sequence (P47870 25-512 limits assumed): as the sequence (P47870 25-512) above
T6 sequence (O14764 17-452 limits assumed): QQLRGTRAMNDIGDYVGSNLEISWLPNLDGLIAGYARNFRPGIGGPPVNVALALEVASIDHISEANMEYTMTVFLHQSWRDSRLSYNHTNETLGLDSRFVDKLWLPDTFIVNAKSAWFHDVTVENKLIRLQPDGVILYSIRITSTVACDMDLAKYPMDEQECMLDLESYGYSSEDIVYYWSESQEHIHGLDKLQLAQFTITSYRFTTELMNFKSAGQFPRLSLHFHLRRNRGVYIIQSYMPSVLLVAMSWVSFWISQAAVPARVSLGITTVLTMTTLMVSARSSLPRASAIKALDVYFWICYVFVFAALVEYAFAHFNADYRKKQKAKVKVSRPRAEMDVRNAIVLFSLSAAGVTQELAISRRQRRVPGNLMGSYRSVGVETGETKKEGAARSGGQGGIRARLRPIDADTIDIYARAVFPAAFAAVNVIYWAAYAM
From the text: as §1

[10] = biological target: T7, serotonin (5HT3A) receptor (Homo sapiens, UniProt P46098); experiment: Application of NBT to other Cys-loop receptors; assay type: cell-based; details: listed as NBT
T7 construct: expressed in transfected cells
T7 sequence (P46098 24-478): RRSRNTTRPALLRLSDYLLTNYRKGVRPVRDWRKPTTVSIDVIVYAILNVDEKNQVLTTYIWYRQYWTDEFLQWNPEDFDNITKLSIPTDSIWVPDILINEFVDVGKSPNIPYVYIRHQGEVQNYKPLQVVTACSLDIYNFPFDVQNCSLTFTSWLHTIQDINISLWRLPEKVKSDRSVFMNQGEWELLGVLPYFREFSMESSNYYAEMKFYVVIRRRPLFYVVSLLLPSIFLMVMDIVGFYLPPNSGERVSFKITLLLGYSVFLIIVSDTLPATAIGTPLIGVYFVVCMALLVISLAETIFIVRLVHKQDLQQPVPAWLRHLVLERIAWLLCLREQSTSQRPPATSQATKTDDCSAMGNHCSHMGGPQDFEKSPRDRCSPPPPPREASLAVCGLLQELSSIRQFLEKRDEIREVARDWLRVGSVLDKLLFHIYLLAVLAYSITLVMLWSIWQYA
From the text: as §1

[11] = biological target: T8, nACh (α7) receptor (Homo sapiens, UniProt P36544); experiment: Application of NBT to other Cys-loop receptors; assay type: cell-based; details: listed as NBT
T8 construct: expressed in transfected cells
T8 sequence (P36544 23-502): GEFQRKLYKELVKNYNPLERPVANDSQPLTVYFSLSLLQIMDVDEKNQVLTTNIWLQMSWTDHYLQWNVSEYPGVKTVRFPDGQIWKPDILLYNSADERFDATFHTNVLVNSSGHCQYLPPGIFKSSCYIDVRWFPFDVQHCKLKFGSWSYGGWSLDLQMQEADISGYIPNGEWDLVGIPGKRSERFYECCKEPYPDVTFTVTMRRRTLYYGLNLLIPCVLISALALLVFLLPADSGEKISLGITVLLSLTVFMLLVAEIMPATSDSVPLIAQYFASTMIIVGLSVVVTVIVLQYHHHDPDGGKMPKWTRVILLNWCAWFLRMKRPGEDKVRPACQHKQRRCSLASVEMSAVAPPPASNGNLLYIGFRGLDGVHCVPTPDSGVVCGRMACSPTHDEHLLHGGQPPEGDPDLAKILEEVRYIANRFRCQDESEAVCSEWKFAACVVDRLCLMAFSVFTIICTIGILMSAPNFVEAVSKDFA
From the text: as §1

| SMILES | ZnCl2 EC50 in Xenopus oocytes relative to HEK cells (fold greater) [1] | approximate EC80 Zn2+ concentration for this receptor [1] [µM] | EC50 ([1]; ZACN expressed in X. laevis oocytes, read-out: EC50 in activating ZACN) [µM] | EC50 ([1]; ZACN expressed in X. laevis oocytes, read-out: EC50 on ZACN) [µM] | EC50 ([1]; read-out: approximate EC50 Zn2+ concentration for this receptor) [µM] | effect on T cell viability [2] | intracellular calcium in iTreg cells [3] | EC50 ([4]; HEK cells, read-out: ZnCl2 EC50 for ZACN expressed in HEK cells) [µM] | activation of ZACN in HEK cells [4] | response to NBT application [5] | response to NBT application [6] | response to NBT application [7] | response to NBT application [8] | response to NBT application [9] | response to NBT application [10] | response to NBT application [11] | ZACN recovery from activation, compared with ZnCl2 [1] | agonist activity on human ZACN (words) [1] |
| --- | --- | --- | --- | --- | --- | --- | --- | --- | --- | --- | --- | --- | --- | --- | --- | --- | --- | --- |
| [Cl-].[Cl-].[Zn+2] [ZnCl2, Zinc chloride] | approximately 3 fold | ~2000 | 1640 ± 56 | 1660 | ~500 | killed T cells | intracellular calcium increase | 540 | activated this receptor dose-dependently | – | – | – | – | – | – | – | – | – |
| COc1cc(-c2ccc(-n3nc(-c4ccccc4)n[n+]3-c3ccc([N+](=O)[O-])cc3)c(OC)c2)ccc1-n1nc(-c2ccccc2)n[n+]1-c1ccc([N+](=O)[O-])cc1 [Nitro Blue Tetrazolium] | – | – | – | – | – | – | – | – | – | elicited no response; also recorded: no agonist or antagonist effect | elicited no response; also recorded: no agonist or antagonist effect | elicited no response; also recorded: no agonist or antagonist effect | elicited no response; also recorded: no agonist or antagonist effect | elicited no response; also recorded: no agonist or antagonist effect | elicited no response; also recorded: no agonist or antagonist effect | elicited no response; also recorded: no agonist or antagonist effect | much slower | selective agonist |
